Measurements published in ChEMBL document CHEMBL1123223, “New effective gonadotropin releasing hormone antagonists with minimal potency for histamine release in vitro” (J Med Chem, 1986).
pKd: −log10 of the molar value. ≈ marks a conversion by molar mass, not a printed value.

How the values were obtained:
Rattus norvegicus [1] = species on record: Rattus norvegicus; assay: GnRH antagonistic dose of compound for 2 rats ovulation out of total 10 using anti-ovulatory assay in experiment 1; assay type: functional
[2] = molecular target: T1, Gonadotropin-releasing hormone receptor (Rattus norvegicus) (UniProt P30969); assay: Inhibition of GnRH-mediated LH secretion by cultured pituitary cells; assay type: functional, cell-based; settings: Pituitary gland cell
T1 sequence (whole entry): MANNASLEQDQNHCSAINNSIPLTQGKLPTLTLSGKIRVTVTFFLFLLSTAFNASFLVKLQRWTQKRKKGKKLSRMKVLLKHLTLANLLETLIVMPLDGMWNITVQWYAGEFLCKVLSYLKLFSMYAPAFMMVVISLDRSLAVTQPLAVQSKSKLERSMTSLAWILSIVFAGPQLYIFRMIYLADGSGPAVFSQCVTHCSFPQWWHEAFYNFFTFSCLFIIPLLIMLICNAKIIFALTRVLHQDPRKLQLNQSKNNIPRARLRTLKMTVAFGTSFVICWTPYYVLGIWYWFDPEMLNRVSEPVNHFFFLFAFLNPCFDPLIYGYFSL

Rattus norvegicus [3] = species on record: Rattus norvegicus; assay: GnRH antagonistic dose of compound for 0 rats ovulation out of total 6 using anti-ovulatory assay in experiment 2; assay type: functional
Rattus norvegicus [4] = species on record: Rattus norvegicus; assay: Compound was tested in vitro for its ability to inhibit histamine release from rat mast cells.; assay type: functional; settings: read-out: ED50 (the source's name)
Rattus norvegicus [5] = species on record: Rattus norvegicus; assay: Dissociation constant was determined in rat pituitary cells.; assay type: cell-based; settings: pituitary gland cell

Relative potency [2]: 0.44
EC50 (Rattus norvegicus [4]): 2.1 µg/mL (≈ 1.44 µM)
SMILES: CC(=O)N[C@H](Cc1ccc2ccccc2c1)C(=O)N[C@H](Cc1ccc(Cl)cc1)C(=O)N[C@H](Cc1cccnc1)C(=O)N[C@@H](CO)C(=O)N[C@@H](CCCN=C(N)N)C(=O)N[C@H](Cc1c[nH]c2ccccc12)C(=O)N[C@@H](CC(C)C)C(=O)N[C@@H](CCCN=C(N)N)C(=O)N1CCC[C@H]1C(=O)N[C@H](C)C(=O)O
ED100 (Rattus norvegicus [1]): 0.5 µg/kg
ED100 (Rattus norvegicus [3]): 1 µg/kg
pKd (Rattus norvegicus [5]): 9.02
